Values quoted from earlier work, collected in patent EP0275444A1, “Pharmaceutical form for urapidil” (BYK GULDEN LOMBERG CHEMISCHE FABRIK GMBH, priority 1986, dated 1988).
Like-named read-outs stand apart in the source and are kept apart here.

Tests used:
[1] = in vivo

Row | Löslichkeit (at the higher pH values of the intestine) | Eliminationshalbwertzeit [1] | Löslichkeit (above pH 4, in water) | SMILES
1 | ausreichende Löslichkeit | 2,7 Stunden | – | COc1ccccc1N1CCN(CCCNc2cc(=O)n(C)c(=O)n2C)CC1 [Urapidil, 6-({3-[4-(o-Methoxyphenyl)-1-piperazinyl]propyl}amino)-1,3-dimethyluracil]
2 | – | – | praktisch wasserunlöslich | OCCN(CCO)c1nc(N2CCCCC2)c2nc(N(CCO)CCO)nc(N3CCCCC3)c2n1 [Dipyridamol]
